Holding throughout (assay): relative viability (nuclei count vs DMSO), 5 days (fraction); higher = more cells survive
Compound in the assay “Venetoclax + Lapatinib”: CC1(C)CCC(CN2CCN(c3ccc(C(=O)NS(=O)(=O)c4ccc(NCC5CCOCC5)c([N+](=O)[O-])c4)c(Oc4cnc5[nH]ccc5c4)c3)CC2)=C(c2ccc(Cl)cc2)C1 [Venetoclax] + CS(=O)(=O)CCNCc1ccc(-c2ccc3ncnc(Nc4ccc(OCc5cccc(F)c5)c(Cl)c4)c3c2)o1 [Lapatinib] (partner 2 µM)
Put shortly:
(§1)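 For relative viability, nuclei counts in treated wells were divided by those in vehicle wells. Lung cancer cell lines had been pin-tool dosed in 1536-well plates the day after seeding and cultured for 5 days, then fixed and stained in one step (final 0.05% Triton X-100, 1% formaldehyde, 1 ug/ml Hoechst) and imaged at 4×. Doses were one drug alone or a fixed anchor-drug dose plus five library-drug doses (not always all listed) in √10 steps, and values are duplicate-plate medians.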

Compound in the assay “Venetoclax + Linsitinib”: CC1(C)CCC(CN2CCN(c3ccc(C(=O)NS(=O)(=O)c4ccc(NCC5CCOCC5)c([N+](=O)[O-])c4)c(Oc4cnc5[nH]ccc5c4)c3)CC2)=C(c2ccc(Cl)cc2)C1 [Venetoclax] + C[C@]1(O)C[C@@H](c2nc(-c3ccc4ccc(-c5ccccc5)nc4c3)c3c(N)nccn32)C1 [Linsitinib] (partner 1 µM)
Put shortly:
as §1

Compound in the assay “Selumetinib + Tozasertib”: Cn1cnc2c(F)c(Nc3ccc(Br)cc3Cl)c(C(=O)NOCCO)cc21 [Selumetinib] + Cc1cc(Nc2cc(N3CCN(C)CC3)nc(Sc3ccc(NC(=O)C4CC4)cc3)n2)n[nH]1 [Tozasertib] (partner 0.1 µM)
The procedure, abridged:
as §1

Compound in the assay “Selumetinib + Decitabine”: Cn1cnc2c(F)c(Nc3ccc(Br)cc3Cl)c(C(=O)NOCCO)cc21 [Selumetinib] + Nc1ncn([C@H]2C[C@H](O)[C@@H](CO)O2)c(=O)n1 [Decitabine] (partner 2 µM)
Put shortly:
as §1

For the cell line UMC-11, the relative viability was 0.828 in the assay with Venetoclax + Lapatinib (first compound 0.01 µM); 0.942 with Venetoclax + Lapatinib (first compound 0.03162 µM); 0.712 with Venetoclax + Lapatinib (first compound 0.1 µM); 0.928 in the assay with Venetoclax + Lapatinib (first compound 0.3162 µM); 0.912 in the assay with Venetoclax + Lapatinib (first compound 1 µM); 1 with Venetoclax + Linsitinib (first compound 0.01 µM). Moreover, the relative viability amounted to 1.01 with Venetoclax + Linsitinib (first compound 0.03162 µM); 0.912 with Venetoclax + Linsitinib (first compound 0.1 µM); 0.932 in the assay with Venetoclax + Linsitinib (first compound 0.3162 µM); 0.959 with Venetoclax + Linsitinib (first compound 1 µM); 0.215 with Selumetinib + Tozasertib (first compound 0.02 µM); 0.203 in the assay with Selumetinib + Tozasertib (first compound 0.06325 µM). Moreover, the relative viability with Selumetinib + Tozasertib (first compound 0.2 µM) is 0.205; with Selumetinib + Tozasertib (first compound 0.6325 µM), 0.199; with Selumetinib + Decitabine (first compound 0.02 µM), 0.653; in the assay with Selumetinib + Decitabine (first compound 0.06325 µM), 0.624; with Selumetinib + Decitabine (first compound 0.2 µM), 0.619; with Selumetinib + Decitabine (first compound 0.6325 µM) it was 0.643.

(Values after the supplement of paper PMC10307832.)
